# Source: patent publication US10745382B2 (BRISTOL-MYERS SQUIBB COMPANY, priority 2015, dated 2020)
# Target: T1, PD-1/PD-L1 (Homo sapiens, UniProt Q9NZQ7)
# T1 construct: made in house; host or cells: HEK293T
# Test: PD-1/PD-L1 Homogenous Time-Resolved Fluorescence (HTRF) binding assay
# Settings: PD-L1-His 10 nM, PD-1-Ig 20 nM; value given as range class; read-out: Range or IC50
# In short: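 Additional pairs run were PD-1-Ig with PD-L2-His (20 & 5 nM) and CD80-His with PD-L1-Ig (100 & 10 nM), all human proteins. Buffer: dPBS plus 0.1% BSA, 0.05% Tween-20; time-resolved FRET read-out via 1 nM Eu-cryptate anti-Ig and 20 nM APC anti-His, final concentrations.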
# T1 sequence (Q9NZQ7 with tags, fused parts or gaps): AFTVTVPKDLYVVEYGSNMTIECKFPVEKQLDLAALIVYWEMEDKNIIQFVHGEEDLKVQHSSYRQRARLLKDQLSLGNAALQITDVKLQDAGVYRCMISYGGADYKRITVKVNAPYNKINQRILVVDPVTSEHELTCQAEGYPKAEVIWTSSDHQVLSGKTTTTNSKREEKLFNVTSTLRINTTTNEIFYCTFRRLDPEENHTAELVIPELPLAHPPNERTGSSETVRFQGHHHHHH
row,IC50,SMILES
1,10 to 100 nM,"Cc1c(COc2cc(OCc3cncc(C#N)c3)c(CNC(C)(CO)CO)cc2Cl)cccc1-c1cccc(OCCCN2CCC(CO)(C(=O)O)C2)c1Cl (stereo not shown) [Example 1118, 1-(3-((2-chloro-3′-((2-chloro-5-((5-cyanopyridin-3-yl)methoxy)-4-(((1,3-dihydroxy-2-methylpropan-2-yl)amino)methyl)phenoxy)methyl)-2′-methyl-[1,1′-biphenyl]-3-yl)oxy)propyl)-3-(hydroxymethyl)pyrrolidine-3-carboxylic Acid]"
2,0.21 to 10 nM,"Cc1c(COc2cc(OCc3cncc(C#N)c3)c(CN[C@@](C)(CO)C(=O)O)cc2Cl)cccc1-c1cccc(OCCCN2CCC(F)(F)C2)c1C [Example 4119, (S)-2-((5-chloro-2-((5-cyanopyridin-3-yl)methoxy)-4-((3′-(3-(3,3-difluoropyrrolidin-1-yl)propoxy)-2,2′-dimethyl-[1,1′-biphenyl]-3-yl)methoxy)benzyl)amino)-3-hydroxy-2-methylpropanoic Acid]"
3,0.21 to 10 nM,"Cc1c(COc2cc(OCc3cncc(S(C)(=O)=O)c3)c(CN[C@@](C)(CO)C(=O)O)cc2Cl)cccc1-c1cccc(OCCCN2CC[C@@H](O)C2)c1 [Example 1024, (S)-2-((5-chloro-4-((3′-(3-((R)-3-hydroxypyrrolidin-1-yl)propoxy)-2-methyl-[1,1′-biphenyl]-3-yl)methoxy)-2-((5-(methylsulfonyl)pyridin-3-yl)methoxy)benzyl)amino)-3-hydroxy-2-methylpropanoic Acid]"
4,0.21 to 10 nM,"CO[C@@H]1CCN(CCCOc2cccc(-c3cccc(COc4cc(OCc5cncc(C#N)c5)c(CN5CCCC[C@H]5C(=O)O)cc4Cl)c3C)c2C)C1 [Example 2252, (2S)-1-(5-chloro-2-((5-cyanopyridin-3-yl)methoxy)-4-((3′-(3-((R)-3-methoxypyrrolidin-1-yl)propoxy)-2,2′-dimethylbiphenyl-3-yl)methoxy)benzyl)piperidine-2-carboxylic Acid]"
5,100 to 2000 nM,"CCNC(=O)c1cccc(-c2cccc(COc3cc(OCc4cncc(C#N)c4)c(CN4CCC[C@H]4C(=O)O)cc3Cl)c2C)c1C [Example 4007, (5-chloro-2-((5-cyanopyridin-3-yl)methoxy)-4-((3′-(ethylcarbamoyl)-2,2′-dimethyl-[1,1′-biphenyl]-3-yl)methoxy)benzyl)-L-proline]"
6,0.21 to 10 nM,"Cc1c(COc2cc(OCc3cncc(S(C)(=O)=O)c3)c(CN3CCCC[C@H]3C(=O)O)cc2Cl)cccc1-c1cccc(OCCCN2CCC(O)(CC(=O)O)C2)c1C (mixture of isomers) [Example 1516, (2S)-1-(4-((3′-(3-(3-(carboxymethyl)-3-hydroxypyrrolidin-1-yl)propoxy)-2,2′-dimethyl-[1,1′-biphenyl]-3-yl)methoxy)-5-chloro-2-((5-(methylsulfonyl)pyridin-3-yl)methoxy)benzyl)piperidine-2-carboxylic acid]"
7,0.21 to 10 nM,"COC(=O)C1CN(CCCOc2cccc(-c3cccc(COc4cc(OCc5cncc(S(C)(=O)=O)c5)c(CN5CCCC[C@H]5C(=O)O)cc4Cl)c3C)c2C)CC1O (stereo partly drawn) [Example 1072, (2S)-1-(5-chloro-4-((3′-(3-(3-hydroxy-4-(methoxycarbonyl)pyrrolidin-1-yl)propoxy)-2,2′-dimethyl-[1,1′-biphenyl]-3-yl)methoxy)-2-((5-(methylsulfonyl)pyridin-3-yl)methoxy)benzyl)piperidine-2-carboxylic Acid]"
8,0.21 to 10 nM,"Cc1c(COc2cc(OCc3ccc(F)c(F)c3)c(CN3CCCC[C@H]3C(=O)O)cc2Cl)cccc1-c1cccc(OCCCN2CC[C@@H](O)C2)c1C [Example 4512, (S)-1-(5-chloro-2-((3,4-difluorobenzyl)oxy)-4-((3′-(3-((R)-3-hydroxypyrrolidin-1-yl)propoxy)-2,2′-dimethyl-[1,1′-biphenyl]-3-yl)methoxy)benzyl)piperidine-2-carboxylic Acid]"
9,0.21 to 10 nM,"CC[C@@H](C(=O)O)N(C)Cc1cc(Cl)c(OCc2cccc(-c3cccc(OCCCN4CC[C@@H](O)C4)c3C)c2C)cc1OCc1cncc(C#N)c1 [Example 4133, (S)-2-((5-chloro-2-((5-cyanopyridin-3-yl)methoxy)-4-((3′-(3-((R)-3-hydroxypyrrolidin-1-yl)propoxy)-2,2′-dimethyl-[1,1′-biphenyl]-3-yl)methoxy)benzyl)(methyl)amino)butanoic Acid]"
10,0.21 to 10 nM,"Cc1c(COc2cc(OCc3cncc(S(C)(=O)=O)c3)c(CN3CCCC[C@H]3C(=O)O)cc2Cl)cccc1-c1cccc(OCCCN2CC[C@@H](O)C2)c1C [Example 1027, (S)-1-(5-chloro-4-((3′-(3-((R)-3-hydroxypyrrolidin-1-yl)propoxy)-2,2′-dimethyl-[1,1′-biphenyl]-3-yl)methoxy)-2-((5-(methylsulfonyl)pyridin-3-yl)methoxy)benzyl)piperidine-2-carboxylic Acid]"
11,0.21 to 10 nM,Cc1c(OCCCN2CC[C@@H](O)C2)cccc1-c1cccc(COc2cc(OCc3cncc(C#N)c3)c(CN[C@](C)(CO)C(=O)O)cc2Cl)c1 [Example 3015]
12,10 to 100 nM,"C=CC(=O)NCCNCc1cc(Cl)c(OCc2cccc(-c3cccc(OCCCN4CC[C@@H](O)C4)c3C)c2C)cc1OCc1cncc(S(C)(=O)=O)c1 [Example 1034, (R)—N-(2-((5-chloro-4-((3′-(3-(3-hydroxypyrrolidin-1-yl)propoxy)-2,2′-dimethyl-[1,1′-biphenyl]-3-yl)methoxy)-2-((5-(methylsulfonyl)pyridin-3-yl)methoxy)benzyl)amino)ethyl)acrylamide]"
13,0.21 to 10 nM,"CCOC(=O)C1(O)CCN(CCCOc2cccc(-c3cccc(COc4cc(OCc5cncc(C#N)c5)c(CN[C@](C)(CO)C(=O)O)cc4Cl)c3C)c2Cl)CC1 [Example 1098, (R)-2-((5-chloro-4-((2′-chloro-3′-(3-(4-(ethoxycarbonyl)-4-hydroxypiperidin-1-yl)propoxy)-2-methyl-[1,1′-biphenyl]-3-yl)methoxy)-2-((5-cyanopyridin-3-yl)methoxy)benzyl)amino)-3-hydroxy-2-methylpropanoic Acid]"
14,0.21 to 10 nM,"COC(=O)[C@@H]1CCCCN1Cc1cc(Cl)c(OCc2cccc(-c3cccc(OCCCN4CC[C@@H](O)C4)c3C)c2C)cc1OCc1cncc(C#N)c1 [Example 3067, methyl (S)-1-(5-chloro-2-((5-cyanopyridin-3-yl)methoxy)-4-((3′-(3-((R)-3-hydroxypyrrolidin-1-yl)propoxy)-2,2′-dimethyl-[1,1′-biphenyl]-3-yl)methoxy)benzyl)piperidine-2-carboxylate]"
15,10 to 100 nM,"C=CC(=O)NCCCOc1cccc(-c2cccc(COc3cc(OCc4cncc(C#N)c4)c(CN4CCCC[C@H]4C(=O)O)cc3Cl)c2C)c1 [Example 1020, (S)-1-(4-((3′-(3-acrylamidopropoxy)-2-methyl-[1,1′-biphenyl]-3-yl)methoxy)-5-chloro-2-((5-cyanopyridin-3-yl)methoxy)benzyl)piperidine-2-carboxylic Acid]"
16,0.21 to 10 nM,"Cc1c(COc2cc(OCc3cncc(C#N)c3)c(CN3CCCC[C@H]3C(=O)O)cc2Cl)cccc1-c1cccc(OCCCNCC(C)(C)CO)c1C [Example 2234, (2S)-1-(5-chloro-2-((5-cyanopyridin-3-yl)methoxy)-4-((3′-(3-(3-hydroxy-2,2-dimethylpropylamino)propoxy)-2,2′-dimethylbiphenyl-3-yl)methoxy)benzyl)piperidine-2-carboxylic Acid]"
17,0.21 to 10 nM,"Cc1c(COc2cc(OCc3cncc(C#N)c3)c(CNC[C@H](O)CO)cc2Cl)cccc1-c1cccc(OCCCN2CC[C@H](O)[C@@H](O)C2)c1Cl [Example 2030, 5-((4-chloro-5-((2′-chloro-3′-(3-((3S,4S)-3,4-dihydroxypiperidin-1-yl)propoxy)-2-methyl-[1,1′-biphenyl]-3-yl)methoxy)-2-((((S)-2,3-dihydroxypropyl)amino)methyl)phenoxy)methyl)nicotinonitrile]"
18,0.21 to 10 nM,"Cc1c(OCCCN2CCS(=O)(=O)CC2)cccc1-c1cccc(COc2cc(OCc3cncc(C#N)c3)c(CN3CCCC[C@H]3C(=O)O)cc2Cl)c1Cl [Example 2310, (S)-1-(5-chloro-4-((2-chloro-3′-(3-(1,1-dioxidothiomorpholino)propoxy)-2′-methyl-[1,1′-biphenyl]-3-yl)methoxy)-2-((5-cyanopyridin-3-yl)methoxy)benzyl)piperidine-2-carboxylic Acid]"
19,0.21 to 10 nM,"Cc1c(COc2cc(OCCCN3CC[C@@H](O)C3)c(CN[C@](C)(CO)C(=O)O)cc2Cl)cccc1-c1cccc(OCCCN2CC[C@@H](O)C2)c1C [Example 1531, (R)-2-((5-chloro-2-(3-((R)-3-hydroxypyrrolidin-1-yl)propoxy)-4-((3′-(3-((R)-3-hydroxypyrrolidin-1-yl)propoxy)-2,2′-dimethyl-[1,1′-biphenyl]-3-yl)methoxy)benzyl)amino)-3-hydroxy-2-methylpropanoic Acid]"
20,0.21 to 10 nM,"Cc1c(COc2cc(OCc3cncc(C#N)c3)c(CN[C@@](C)(CO)C(=O)O)cc2Cl)cccc1-c1cccc(OCCCNC[C@H](O)CO)c1Cl [Example 2006, (S)-2-((5-chloro-4-((2′-chloro-3′-(3-(((S)-2,3-dihydroxypropyl)amino)propoxy)-2-methyl-[1,1′-biphenyl]-3-yl)methoxy)-2-((5-cyanopyridin-3-yl)methoxy)benzyl)amino)-3-hydroxy-2-methylpropanoic Acid]"
21,100 to 2000 nM,"CNC(=O)c1cccc(-c2cccc(COc3cc(OCc4cc(F)cc(F)c4)c(C=O)cc3Cl)c2C)c1C [Example 4028, 3′-((2-chloro-5-((3,5-difluorobenzyl)oxy)-4-formylphenoxy)methyl)-N,2,2′-trimethyl-[1,1′-biphenyl]-3-carboxamide]"
22,0.21 to 10 nM,"Cc1c(COc2cc(OCc3cncc(S(C)(=O)=O)c3)c(CN[C@H](CO)C(=O)O)cc2Cl)cccc1-c1cccc(OCCCN2CCC(CO)(C(=O)O)C2)c1C (stereo partly drawn) [Example 1050, 1-(3-((3′-((4-((((R)-1-carboxy-2-hydroxyethyl)amino)methyl)-2-chloro-5-((5-(methylsulfonyl)pyridin-3-yl)methoxy)phenoxy)methyl)-2,2′-dimethyl-[1,1′-biphenyl]-3-yl)oxy)propyl)-3-(hydroxymethyl)pyrrolidine-3-carboxylic Acid]"
